Where a SMILES comes first, the peptide text is derived from it. The star is where a group is joined. Bn = c1ccc(C*)cc1
Assays:
β-catenin = target: T1, β-catenin (Homo sapiens, UniProt P35222); assay: KD50 measurement using competitive fluorescence polarization (FP) with labelled TCF4; assay type: binding; conditions: fluorescence polarization, β-catenin; for Kd: read-out: β-Cat FP KD
T1 sequence (P35222 1-781): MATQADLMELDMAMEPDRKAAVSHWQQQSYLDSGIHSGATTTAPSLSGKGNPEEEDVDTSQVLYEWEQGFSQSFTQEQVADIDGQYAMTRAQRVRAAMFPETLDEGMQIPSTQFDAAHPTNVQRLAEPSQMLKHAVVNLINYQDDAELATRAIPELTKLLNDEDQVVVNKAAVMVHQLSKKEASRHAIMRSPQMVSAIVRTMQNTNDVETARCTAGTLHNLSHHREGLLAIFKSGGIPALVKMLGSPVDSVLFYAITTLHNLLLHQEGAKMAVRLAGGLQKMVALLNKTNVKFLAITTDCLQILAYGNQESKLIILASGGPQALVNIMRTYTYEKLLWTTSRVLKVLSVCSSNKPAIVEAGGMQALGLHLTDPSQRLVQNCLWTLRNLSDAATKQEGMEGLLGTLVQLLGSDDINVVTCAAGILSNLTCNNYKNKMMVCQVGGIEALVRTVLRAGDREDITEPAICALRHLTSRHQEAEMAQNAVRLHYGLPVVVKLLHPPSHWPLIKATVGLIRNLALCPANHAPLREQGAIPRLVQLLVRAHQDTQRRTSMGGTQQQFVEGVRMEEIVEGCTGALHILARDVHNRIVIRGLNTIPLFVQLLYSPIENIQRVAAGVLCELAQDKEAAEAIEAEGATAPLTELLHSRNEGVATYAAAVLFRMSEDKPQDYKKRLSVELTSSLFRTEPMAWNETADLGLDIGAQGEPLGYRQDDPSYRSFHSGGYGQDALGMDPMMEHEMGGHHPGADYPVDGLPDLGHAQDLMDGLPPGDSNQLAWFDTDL
How it was run: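 5 nM labelled TCF4 was combined with 100 nM β-catenin at room temperature, then inhibitor was titrated in serial dilutions from 10 nM to 30 uM. Polarization was read at excitation 470 nm, emission 520 nm; displacement lowers the signal. Three independent experiments.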

[1] = % Viability non-Wnt responsive cells
[2] = target: Wnt-responsive promoter (TCF/LEF); assay: Wnt-dependent luciferase reporter assay; assay type: cell-based, murine
How it was run: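 EC50 (uM) derived from inhibition of luminescence in Wnt3a-stimulated murine 3T3 cells expressing luciferase under a TCF/LEF promoter, with peptides added across a concentration range and vehicle as control.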

β-Cat FP Hill slope (β-catenin) | EC50 [2] [µM] | Kd (β-catenin) [µM] | SMILES | viability [1] [%]
0.7 | 7.5 to 15 | – | CC[C@H](C)[C@H](NC(=O)[C@H](CC(C)C)NC(=O)[C@H](Cc1ccccc1)NC(=O)[C@H](Cc1c[nH]c2ccccc12)NC(=O)[C@@H](N)CCSC)C(=O)N[C@@H](CS)C(=O)N[C@@H](Cc1cncn1C)C(=O)N[C@@H](Cc1c[nH]c2ccccc12)C(=O)NCC(=O)O [compound 135] (HELM PEPTIDE1{M.W.F.L.I.C.[Cn1cncc1C[C@H](N[*:1])C(=O)[*:2]].W.G}$$$$V2.0) | 107
0.9 | > 30 | 0.4 to 1 | CC[C@H](C)[C@H](NC(=O)[C@H](Cc1c[nH]c2ccccc12)NC(=O)[C@@H](N)CCSC)C(=O)N[C@@H](CC(C)C)C(=O)N[C@H](C(=O)NC(C)(CO)C(=O)N[C@@H](Cc1ccccc1)C(=O)N[C@@H](Cc1c[nH]c2ccccc12)C(=O)NCC(=O)O)[C@@H](C)CC (stereo partly drawn) [compound 136] (HELM PEPTIDE1{M.W.I.L.I.[CC(CO)(N[*:1])C(=O)[*:2]].F.W.G}$$$$V2.0) | 106
0.81 | 15 to 22.5 | 0.4 to 1 | CC[C@H](C)[C@H](NC(=O)[C@H](Cc1c[nH]c2ccccc12)NC(=O)[C@@H](N)CCSC)C(=O)N[C@@H](CC(C)C)C(=O)N[C@H](C(=O)N[C@@H](C(=O)N[C@@H](Cc1ccccc1)C(=O)N[C@@H](Cc1c[nH]c2ccccc12)C(=O)NCC(=O)O)[C@H](C)O)[C@@H](C)CC [compound 137] (HELM PEPTIDE1{M.W.I.L.I.[dT].F.W.G}$$$$V2.0) | 93.9
– | > 30 | > 30 | CC[C@H](C)[C@H](NC(=O)[C@H](Cc1c[nH]c2ccccc12)NC(=O)[C@@H](N)CCSC)C(=O)NC(C)(CC(C)C)C(=O)N[C@H](C(=O)N[C@@H](CO)C(=O)N[C@@H](Cc1ccccc1)C(=O)N[C@@H](Cc1c[nH]c2ccccc12)C(=O)NCC(=O)O)[C@@H](C)CC (stereo partly drawn) [compound 138] (HELM PEPTIDE1{M.W.I.[CC(C)CC(C)(N[*:1])C(=O)[*:2]].I.S.F.W.G}$$$$V2.0) | 106
– | > 30 | > 30 | CCCCCC[C@H](N)C(=O)N[C@@H](Cc1c[nH]c2ccccc12)C(=O)N[C@@H](Cc1ccccc1)C(=O)N[C@@H](CC(C)C)C(=O)N[C@H](C(=O)N[C@@H](CS)C(=O)N[C@@H](Cc1ccccc1)C(=O)N[C@@H](Cc1c[nH]c2ccccc12)C(=O)NCC(=O)O)[C@@H](C)CC [compound 139] (HELM PEPTIDE1{[CCCCCC[C@H](N)C(=O)[*:2]].W.F.L.I.C.F.W.G}$$$$V2.0) | 99.5
0.7 | 15 to 22.5 | – | CC[C@H](C)[C@H](NC(=O)[C@H](CC(C)C)NC(=O)[C@H](Cc1ccccc1)NC(=O)[C@H](Cc1c[nH]c2ccccc12)NC(=O)[C@@H](N)CCSC)C(=O)N[C@@H](CS)C(=O)N[C@@H](Cc1cn(C)cn1)C(=O)N[C@@H](Cc1c[nH]c2ccccc12)C(=O)NCC(=O)O [compound 140] (HELM PEPTIDE1{M.W.F.L.I.C.[Cn1cnc(C[C@H](N[*:1])C(=O)[*:2])c1].W.G}$$$$V2.0) | 102
– | 7.5 to 15 | > 30 | CCC[C@H](N)C(=O)N[C@@H](Cc1c[nH]c2ccccc12)C(=O)N[C@@H](Cc1ccccc1)C(=O)N[C@@H](CC(C)C)C(=O)N[C@H](C(=O)N[C@@H](CS)C(=O)N[C@@H](Cc1ccccc1)C(=O)N[C@@H](Cc1c[nH]c2ccccc12)C(=O)NCC(=O)O)[C@@H](C)CC [compound 141] (HELM PEPTIDE1{[Nva].W.F.L.I.C.F.W.G}$$$$V2.0) | 100
1.15 | < 7.5 | < 0.4 | CC[C@H](C)[C@H](NC(=O)[C@H](CC(C)C)NC(=O)[C@H](Cc1ccccc1)NC(=O)[C@H](Cc1c[nH]c2ccccc12)NC(=O)[C@@H](N)CC(=O)O)C(=O)N[C@@H](CS)C(=O)N[C@@H](Cc1ccccc1)C(=O)N[C@@H](Cc1c[nH]c2ccccc12)C(=O)NCC(=O)O [compound 142] (H-DWFLICFWG-OH) | 108
– | 7.5 to 15 | > 30 | CC[C@H](C)[C@H](NC(=O)[C@H](CC(C)C)NC(=O)[C@H](Cc1ccccc1)NC(=O)[C@H](Cc1c[nH]c2ccccc12)NC(=O)[C@@H](N)CCSC)C(=O)N[C@@H](CCC(N)=O)C(=O)N[C@@H](Cc1ccccc1)C(=O)N[C@@H](Cc1c[nH]c2ccccc12)C(=O)NCC(=O)O [compound 143] (H-MWFLIQFWG-OH) | 104
– | < 7.5 | > 30 | CC[C@H](C)[C@H](NC(=O)[C@H](CC(C)C)NC(=O)[C@@H](NC(=O)[C@H](Cc1c[nH]c2ccccc12)NC(=O)[C@@H](N)CCSC)[C@@H](C)CC)C(=O)N[C@@H](CCO)C(=O)N[C@@H](Cc1ccccc1)C(=O)N[C@@H](Cc1c[nH]c2ccccc12)C(=O)NCC(=O)O [compound 144] (HELM PEPTIDE1{M.W.I.L.I.[O=C([C@H](CCO)N[*:1])[*:2]].F.W.G}$$$$V2.0) | 106
0.7 | 7.5 to 15 | 1 to 10 | CC[C@H](C)[C@H](NC(=O)[C@H](CC(C)C)NC(=O)[C@H](Cc1ccccc1)NC(=O)[C@H](Cc1c[nH]c2ccccc12)NC(=O)[C@@H](N)CCSC)C(=O)N[C@@H](CS)C(=O)N[C@@H](Cc1c[nH]cn1)C(=O)N[C@@H](Cc1c[nH]c2ccccc12)C(=O)NCC(=O)O [compound 145] (H-MWFLICHWG-OH) | 107
– | > 30 | > 30 | CC[C@H](C)[C@H](NC(=O)[C@H](CC(C)C)NC(=O)[C@@H](NC(=O)[C@H](Cc1c[nH]c2ccccc12)NC(=O)[C@@H](N)CCSC)[C@@H](C)CC)C(=O)N[C@@H](COCc1ccccc1)C(=O)N[C@@H](Cc1ccccc1)C(=O)N[C@@H](Cc1c[nH]c2ccccc12)C(=O)NCC(=O)O [compound 146] (H-MWILIS(Bn)FWG-OH) | 99.1
– | > 30 | > 30 | CC[C@H](C)[C@@H]1NC(=O)[C@H](CC(C)C)NC(=O)[C@H](Cc2ccccc2)NC(=O)[C@H](Cc2c[nH]c3ccccc23)NC(=O)[C@H](CCSC)NC(=O)CCCNC(=O)C[C@@H](C(=O)O)NC(=O)[C@H](Cc2c[nH]c3ccccc23)NC(=O)[C@H](Cc2ccccc2)NC(=O)[C@H](CS)NC1=O [compound 147] (HELM PEPTIDE1{[O=C(CCCN[*:1])[*:2]].M.W.F.L.I.C.F.W.D}$PEPTIDE1,PEPTIDE1,1:R1-10:R3$$$V2.0) | 105
0.75 | 7.5 to 15 | 0.4 to 1 | CC[C@H](C)[C@H](NC(=O)[C@H](CC(C)C)NC(=O)[C@H](Cc1ccccc1)NC(=O)[C@H](Cc1c[nH]c2ccccc12)NC(=O)[C@@H](N)CCSC)C(=O)N[C@@H](CCC(N)=O)C(=O)N[C@@H](Cc1ccccc1)C(=O)N[C@@H](Cc1ccc(O)cc1)C(=O)NCC(=O)O [compound 149] (H-MWFLIQFYG-OH) | 104
– | < 7.5 | > 30 | CC[C@H](C)[C@H](NC(=O)[C@H](Cc1c[nH]c2ccccc12)NC(=O)[C@@H](N)CCSC)C(=O)N[C@@H](CC(C)C)C(=O)N[C@H](C(=O)N[C@H](C(=O)N[C@@H](Cc1ccccc1)C(=O)N[C@@H](Cc1c[nH]c2ccccc12)C(=O)NCC(=O)O)[C@@H](C)O)[C@@H](C)CC [compound 150] (H-MWILITFWG-OH) | 99.8
0.7 | 15 to 22.5 | 0.4 to 1 | CC[C@H](C)[C@H](NC(=O)[C@H](CC(C)C)NC(=O)[C@H](Cc1ccccc1)NC(=O)[C@H](Cc1c[nH]c2ccccc12)NC(=O)[C@@H](N)CCSC)C(=O)N[C@@H](CCCCN)C(=O)N[C@@H](Cc1ccccc1)C(=O)N[C@@H](Cc1ccc(O)cc1)C(=O)NCC(=O)O [compound 151] (H-MWFLIKFYG-OH) | 107
– | < 7.5 | > 30 | CC[C@H](C)[C@H](NC(=O)[C@H](CC(C)C)NC(=O)[C@@H](NC(=O)[C@H](Cc1c[nH]c2ccccc12)NC(=O)[C@@H](N)CCSC)[C@@H](C)CC)C(=O)N[C@@H](CO)C(=O)N[C@@H](Cc1ccc(O)cc1)C(=O)N[C@@H](Cc1c[nH]c2ccccc12)C(=O)NCC(=O)O [compound 152] (H-MWILISYWG-OH) | 114
– | < 7.5 | > 30 | CC[C@H](C)[C@H](NC(=O)[C@H](CC(C)C)NC(=O)[C@H](Cc1ccccc1)NC(=O)[C@H](Cc1c[nH]c2ccccc12)NC(=O)[C@@H](N)CCSC)C(=O)N[C@@H](CS)C(=O)N[C@@H](Cc1ccccc1)C(=O)N[C@@H](Cc1c[nH]c2ccccc12)C(=O)NCCCC(=O)O [compound 153] (HELM PEPTIDE1{M.W.F.L.I.C.F.W.[O=C(O)CCCN[*:1]]}$$$$V2.0) | 104

Source: US12441768B2, “Compositions and methods for treating endometriosis” (EndoMet Biosciences, Inc., priority 2018, dated 2025)
